Experimental data as given in patent US6534523B1, “Hepatitis C inhibitor tri-peptides” (Boehringer Ingelheim (Canada) Ltd., priority 1998, dated 2003).

Experiments:
[1] = target: bovine pancreatic α-chymotrypsin (Bos taurus, UniProt P00766); test: Specificity assay (Example 40), bovine pancreatic α-chymotrypsin; format: biochemical; conditions: read-out: α-Chym. activity in the specificity assay of Example 40
Description: The specificity of the compounds was determined against a variety of serine proteases: human leukocyte elastase, porcine pancreatic elastase and bovine pancreatic α-chymotrypsin and one cysteine protease: human liver cathepsin B. In all cases a 96-well plate format protocol using a calorimetric p-nitroaniline (pNA) substrate specific for each enzyme was used. Each assay included a 1 h enzyme-inhibitor pre-incubation at 30° C. followed by addition of substrate and hydrolysis to ≈30% conversion as measured on a UV Thermomax® microplate reader. Substrate concentrations were kept as low as possible compared to KM to reduce substrate competition. Compound concentrations varied from 300 to 0.06 μM depending on their potency.
The final conditions for each assay were as follows:
50 mM Tris-HCl pH 8, 0.5 M Na2SO4, 50 mM NaCl, 0.1 mM EDTA, 3% DMSO, 0.01% Tween-20 with;
[100 μM Succ-AAPF-pNA and 250 pM α-chymotrypsin], [133 μM Succ-AAA-pNA and 8 nM porcine elastase], [133 μM Succ-AAV-pNA and 8 nM leukocyte elastase]; or
The sequential 2-fold dilutions of the inhibitor solution were performed on a separate plate by the liquid handler using 50 mM Tris-HCl pH 8, 50 mM NaCl, 0.1 mM EDTA, 0.02% Tween-20, 15% DMSO. All other specificity assays were performed in a similar fashion.
The percentage of inhibition was calculated using the formula:
[1-((UVinh−UVblank)/(UVctl−UVblank))]×100 […]

HCV NS3 protease = HCV NS3 protease (UniProt P26663); format: biochemical, HCV genotype 1b; parameters: rows headed: IC50 (μM); IC50 (μM); conditions: Table 6
Sequence of HCV NS3 protease (P26663 1027-1206, other chains not shown): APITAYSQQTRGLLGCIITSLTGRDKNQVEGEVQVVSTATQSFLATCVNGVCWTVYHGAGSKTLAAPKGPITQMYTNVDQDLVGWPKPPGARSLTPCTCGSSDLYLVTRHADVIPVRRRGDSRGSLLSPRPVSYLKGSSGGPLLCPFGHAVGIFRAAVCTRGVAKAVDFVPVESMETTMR

C=C[C@@H]1C[C@]1(NC(=O)[C@@H]1C[C@@H](Oc2cc(-c3ccccc3)nc3cc(OC)ccc23)CN1C(=O)[C@@H](NC(=O)OC(C)(C)C)C(C)C)C(=O)O [compound 601]
IC50 [1]: > 75000 nM | IC50 (HCV NS3 protease): 50 nM
